Measured values as given in ChEMBL document CHEMBL4052806, “Chemical constituents from the rare mushroom Calvatia nipponica inhibit the promotion of angiogenesis in HUVECs” (Bioorg Med Chem Lett, 2017).
Active and inactive are the calls of the source. No cut-off for these calls is given here.

How the values were obtained:
HUVEC [1] = assay: Antiangiogenic activity in HUVEC assessed as inhibition of tube formation on matrigel after 24 hrs by Mayer's hematoxylin staining based light microscopy; assay type: functional, cell-based; details: Homo sapiens
HUVEC [2] = assay: Cytotoxicity against HUVEC assessed as reduction in cell viability up to 12.5 ug/ml after 24 hrs by MTT assay; assay type: cell-based; details: human
HUVEC [3] = assay: Cytotoxicity against HUVEC assessed as reduction in cell viability at 100 ug/ml after 24 hrs by MTT assay relative to control; assay type: cell-based; details: human
HUVEC [4] = assay: Cytotoxicity against HUVEC assessed as reduction in cell viability after 24 hrs by MTT assay; assay type: cell-based; details: human
HUVEC [5] = assay: Antiangiogenic activity in HUVEC assessed as inhibition of tube formation on matrigel at 12.5 ug/ml after 24 hrs by Mayer's hematoxylin staining based light microscopy relative to control; assay type: functional; details: Homo sapiens
HUVEC [6] = assay: Down regulation of VEGF expression in HUVEC at 6.25 ug/ml after 24 hrs by Western blot analysis relative to control; assay type: functional, Homo sapiens
Homo sapiens [7] = organism: Homo sapiens; assay: Inhibition of ERK phosphorylation in HUVEC at 12.5 ug/ml after 24 hrs by Western blot analysis relative to control
Homo sapiens [8] = organism: Homo sapiens; assay: Inhibition of ERK phosphorylation in HUVEC at 6.25 ug/ml after 24 hrs by Western blot analysis relative to control
HUVEC [9] = assay: Down regulation of VEGF expression in HUVEC at 12.5 ug/ml after 24 hrs by Western blot analysis relative to control; assay type: functional, Homo sapiens
[10] = target: T1, MAP kinase p38 (Homo sapiens) (UniProt O15264+Q15759+Q16539+P53778); assay: Inhibition of p38 phosphorylation in HUVEC at 12.5 ug/ml after 24 hrs by Western blot analysis relative to control
[11] = target: T1, MAP kinase p38 (Homo sapiens); assay: Inhibition of p38 phosphorylation in HUVEC at 6.25 ug/ml after 24 hrs by Western blot analysis relative to control

O=C1OCc2cc(O)cc(O)c21 was tested, and the inhibition (HUVEC [1]) was “inactive”.

For OCc1cc(O)cc(O)c1, the Activity (HUVEC [2]) was “Non-Toxic”, the Activity (HUVEC [3]) was 25.15% and the inhibition (HUVEC [1]) was “inactive”. For the same compound, the Activity (HUVEC [4]) was “Dose-dependent effect”.

In the case of NC(=O)c1cccnc1 [NIACINAMIDE], the Activity (HUVEC [2]) is reported as “Non-Toxic”, the Activity (HUVEC [3]) is reported as 6.07% and the inhibition at 12.5 µg/mL (HUVEC [5]) is reported as 11.3%. The Activity (HUVEC [4]) was “Dose-dependent effect”.

CNc1ccccc1C(=O)O was tested, and the Activity (HUVEC [2]) was “Non-Toxic”, the Activity (HUVEC [3]) was 24.55% and the inhibition (HUVEC [1]) was “inactive”. For the same compound, the Activity (HUVEC [4]) was “Dose-dependent effect”.

O=C1NCc2c(O)cc(O)cc21 was tested, and the “fold change (FC)” value (HUVEC [6]) was 0.9, the fold change (FC) (Homo sapiens [7]) was 0.9 and the fold change (FC) (Homo sapiens [8]) was 1.05. For the same compound, the “fold change (FC)” value (HUVEC [9]) was 0.72, the fold change (FC) [10] was 0.71 and the fold change (FC) [11] was 0.87. For the same compound, the Activity (HUVEC [2]) was “Non-Toxic”, the Activity (HUVEC [3]) was 23.13% and the inhibition at 12.5 µg/mL (HUVEC [5]) was 32.6%. For the same compound, the Activity (HUVEC [4]) was “Dose-dependent effect”.

CN(C)c1ccccc1C(=O)O was tested, and the Activity (HUVEC [2]) was “Non-Toxic”, the Activity (HUVEC [3]) was 25.82% and the inhibition (HUVEC [1]) was “inactive”. The Activity (HUVEC [4]) was “Dose-dependent effect”.

CC(=O)Nc1ccc(O)cc1 [ACETAMINOPHEN] was tested, and the Activity (HUVEC [2]) was “Non-Toxic”, the Activity (HUVEC [3]) was 25.93% and the inhibition at 12.5 µg/mL (HUVEC [5]) was 10.5%. The Activity (HUVEC [4]) was “Dose-dependent effect”.
